Values of other authors as cited in patent publication US20040170688A1, “Enteric formulation of fluoxetin” (priority 2001, published 2004).

Details: published literature

| SMILES | elimination half-life |
| --- | --- |
| NCCC(Oc1ccc(C(F)(F)F)cc1)c1ccccc1 (centres unmarked) [NorFluoxetin] | very long |
| CNCCC(Oc1ccc(C(F)(F)F)cc1)c1ccccc1 (stereo not drawn) [Fluoxetin, N-Methyl-3-phenyl-3-[(α,α,α-trifluorotolyl)oxyl] propylamine] | very long |
